Source: patent US5245051A, “Antipsychotic chroman derivatives of benzodioxanmethylamine” (American Home Products Corporation, priority 1992, dated 1993)

Test system: dopa accumulation
Experiment: Inhibition of dopa accumulation in GBL-treated rats (effect on dopamine synthesis, Walters and Roth)
Format: in vivo, rat (male, Sprague-Dawley)
Conditions: sc, limbic (L) brain tissue, rat, read-out: Dopa Accumulation (% inhib. @ 10 mg/kg, sc)
Description: The effect of the compounds of the invention on the synthesis of dopamine was established by the method of Walters and Roth, Naunyn-Schmiedeberg's Arch. Pharmacol. 296:5-14, 1976, in which rats (male, Sprague-Dawley, Charles River, 200-350 g) were administered vehicle or test drug ten minutes prior to the administration of gamma butyrolactone (GBL; 750 mg/kg, ip to inhibit dopaminergic impulse flow) and 20 minutes prior to NSD-1015 (100 mg/kg, ip to prevent the conversion of dopa to dopamine). Thirty minutes after NSD-1015 all rats were decapitated and the nucleus accumbens and the striatum were removed for analysis. Following perchloric acid extraction of the tissue, the extracts were placed over alumina columns to collect and concentrate dopa and other catechols. This eluate was then subjected to HPLC analysis using electrochemical detection to quantify the levels of dopa present. Dopamine autoreceptor agonists, under the conditions used above, inhibit dopa accumulation.

Row | SMILES | inhibition at 10 mg/kg [%]
1 | O=c1ccoc2cc(OCCCNC[C@H]3COc4cc5c(cc4O3)OCO5)ccc12 [Example 2, (S)-7-[3-[[(6,7-Dihydro-1,3-dioxolo[4,5-g][1,4]benzodioxin-6-yl)methyl]amino]propoxy]chromen-4-one] | 60.3

Test system: mouse locomotor activity
Experiment: Reduction of mouse locomotor activity (hypolocomotion)
Format: in vivo, mouse (male, CF-1)
Conditions: 20 min, ip, horizontal activity counts 10 to 20 minutes after dosing
Description: The antipsychotic activity of the compounds of the invention was further established by a determination of the compounds' ability to reduce mouse locomotor activity according to the method of Martin and Bendensky, J. Pharmacol. Exp. Therap. 229: 706-711, 1984, in which mice (male, CF-1, Charles River, 20-30 g) were injected with vehicle or various doses of each drug and locomotor activity was measured for 30 minutes using automated infrared activity monitors (Omnitech-8×8 inch open field) located in a darkened room. ED50 's were calculated from the horizontal activity counts collected from 10 to 20 minutes after dosing using a nonlinear regression analysis with inverse prediction.

Row | SMILES | ED50 [mg/kg]
2 | O=c1ccoc2cc(OCCCNC[C@H]3COc4cc5c(cc4O3)OCO5)ccc12 [Example 2, (S)-7-[3-[[(6,7-Dihydro-1,3-dioxolo[4,5-g][1,4]benzodioxin-6-yl)methyl]amino]propoxy]chromen-4-one] | 2.74

Target: T1, dopamine D2 receptor (Rattus norvegicus, UniProt P61169)
T1 construct: homogenized rat striatal brain tissue; from tissue; host or cells: rat striatal brain tissue homogenate
T1 sequence (P61169 whole entry): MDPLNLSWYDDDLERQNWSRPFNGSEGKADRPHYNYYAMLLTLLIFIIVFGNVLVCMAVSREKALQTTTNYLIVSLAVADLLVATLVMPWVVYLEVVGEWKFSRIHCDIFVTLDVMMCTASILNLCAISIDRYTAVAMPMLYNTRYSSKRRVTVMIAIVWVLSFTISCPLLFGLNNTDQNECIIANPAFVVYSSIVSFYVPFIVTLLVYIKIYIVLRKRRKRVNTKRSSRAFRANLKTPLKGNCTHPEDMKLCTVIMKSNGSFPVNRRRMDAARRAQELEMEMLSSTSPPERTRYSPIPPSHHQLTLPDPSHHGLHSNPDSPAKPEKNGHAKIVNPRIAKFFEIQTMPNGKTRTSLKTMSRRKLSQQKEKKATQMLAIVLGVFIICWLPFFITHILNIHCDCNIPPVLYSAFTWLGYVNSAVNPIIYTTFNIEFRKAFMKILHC
Experiment: Affinity for dopamine D2 receptor (3H-quinpirole, homogenized rat striatal brain tissue)
Format: binding
Conditions: not given
Description: Affinity for the dopamine D2 receptor was established by a modification of the standard experimental test procedure of Seemen and Schaus, European Journal of Pharmacology 203: 105-109, 1991, wherein homogenized rat striatal brain tissue is incubated with ^3 H-quinpirole and various concentrations of test compound, filtered and washed and counted in a Betaplate scintillation counter.

Row | inhibition at 0.1 µM [%] | SMILES
3 | 65 | O=c1ccoc2cc(OCCCNCC3COc4cc5c(cc4O3)OCO5)ccc12 (stereo not drawn) [Example 1, 7-[3-[[(6,7-Dihydro-1,3-dioxolo[4,5-g][1,4]benzodioxin-6-yl)methyl]amino]propoxy]chromen-4-one]
4 | 73 | O=c1ccoc2cc(OCCCNC[C@H]3COc4cc5c(cc4O3)OCO5)ccc12 [Example 2, (S)-7-[3-[[(6,7-Dihydro-1,3-dioxolo[4,5-g][1,4]benzodioxin-6-yl)methyl]amino]propoxy]chromen-4-one]
5 | 24 | O=C1CCOc2cc(OCCCNCC3COc4cc5c(cc4O3)OCO5)ccc21 (stereo not drawn) [Example 4, 7-[3-[[(6,7-Dihydro-1,3-dioxolo[4,5-g][1,4]benzodioxin-6-yl)methyl]amino]propoxy]-chroman-4-one]
6 | 39 | O=c1ccoc2ccc(OCCCNCC3COc4cc5c(cc4O3)OCO5)cc12 (stereo not drawn) [Example 5, 6-[3-[[(6,7-Dihydro-1,3-dioxolo[4,5-g][1,4]benzodioxin-6-yl)methyl]amino]propoxy]-chromen-4-one]
7 | 23 | c1cc2c(cc1OCCCNCC1COc3cc4c(cc3O1)OCO4)CCCO2 (stereo not drawn) [Example 6, N-[3-(Chroman-6-yloxy)-propyl]-6,7-dihydro-1,3-dioxolo[4,5-g][1,4]benzodioxin-6-methanamine]
8 | 24 | c1cc2c(cc1OCCCNCC1COc3cc4c(cc3O1)OCO4)OCCC2 (stereo not drawn) [Example 7, N-[3-(Chroman-7-yloxy)-propyl]-6,7-dihydro-1,3-dioxolo[4,5-g][1,4]benzodioxin-6-methanamine]
9 | 49 | COc1ccc2c(c1)OC(CNCCCOc1ccc3c(=O)ccoc3c1)CO2 (stereo not drawn) [Example 8, 7-[3-[(7-Methoxy-2,3-dihydro-benzo[1,4]dioxin-2-ylmethyl)amino]propoxy]chromen-4-one]
10 | 100 | O=c1ccoc2cc(OCCCNCC3COc4ccc(O)cc4O3)ccc12 (stereo not drawn) [Example 9, 7-[3-[(7-Hydroxy-2,3-dihydro-benzo[1,4]dioxin-2-ylmethyl)amino]propoxy]chromen-4-one]
11 | 43 | O=C1COc2cc(OCCCNCC3COc4cc5c(cc4O3)OCO5)ccc21 (stereo not drawn) [Example 10, 6-[3-[(6,7-Dihydro-1,3-dioxolo[4,5-g][1,4]benzodioxin-6-ylmethyl)amino]propoxy)-benzofuran-3-one]

Test system: 5-HT1A receptor
Experiment: not given
Conditions: (-)-isomer versus dextrorotary isomer; cited from earlier work

Row | SMILES | binds times as much as the dextrorotary isomer at the 5-HT1A receptor site [times]
12 | O=C1CC2(CCCC2)CC(=O)N1CCCCNCC1COc2ccccc2O1 (single isomer, unassigned; (-)) [(-)-MDL 72832, 8-[4-(1,4-benzodioxan-2-ylmethylamino)butyl]-8-azaspiro[4.5]decane-7,9-dione] | 32
